Experiments:
BALB/c mice [1] = test: OVA-specific IgG after immunization (indirect ELISA); assay type: in vivo; conditions: OVA 100 μg alone, s.c. Days 1 and 15, sera 2 weeks after last immunization
Experimental: (§1) Male BALB/c mice were immunized subcutaneously with OVA 100 μg alone or with OVA 100 μg dissolved in saline containing analogues (7.5, 15 or 30 μg) on Days 1 and 15. Sera were collected 2 weeks after the last immunization. OVA-specific IgG antibodies in the sera were measured by an Indirect ELISA. The values are presented as log 2 titre.

BALB/c mice [2] = test: Total IgG1 and IgG2a after immunization (sandwich ELISA); assay type: in vivo; conditions: OVA 100 μg alone
Experimental: as §1, with “Total IgG1 and IgG2a” for “OVA-specific IgG”, “Sandwich” for “an Indirect”

OVA: Ovalbumin (OVA) antigen, given alone
Log(2) IgG Antibody Titre (BALB/c mice [1]): 12.64
Log(2) Total IgG1 Antibody Titre (BALB/c mice [2]): 14.39
Log(2) Total IgG2a Antibody Titre (BALB/c mice [2]): 11.89
